No end group written: not given here.
molecular target: T1, ACE (Oryctolagus cuniculus, UniProt P12822); assay: ACE pre-incubation of milk hydrolysate peptide libraries, stable-isotope dimethyl labeling and LC-MS/MS (D/H ratio); type: in vitro ADME, rabbit; parameters: ACE (EC 3.4.15.1, 1 unit) from rabbit lungs; purchased Sigma Chemical Co. (St. Louis, MO, USA); host or cells: rabbit lungs (tissue-derived enzyme); conditions: milk hydrolysate peptide library (<3 kDa); ACE-treated (0.05 mU/μL ACE, borate buffer, 37 °C, 3 h: 1.5 h static + 1.5 h 200 rpm; D-labeled) versus untreated (H-labeled) peptide; intensity ratio in LC-MS; <1 = hydrolysed by ACE
T1 sequence (P12822 34-1310): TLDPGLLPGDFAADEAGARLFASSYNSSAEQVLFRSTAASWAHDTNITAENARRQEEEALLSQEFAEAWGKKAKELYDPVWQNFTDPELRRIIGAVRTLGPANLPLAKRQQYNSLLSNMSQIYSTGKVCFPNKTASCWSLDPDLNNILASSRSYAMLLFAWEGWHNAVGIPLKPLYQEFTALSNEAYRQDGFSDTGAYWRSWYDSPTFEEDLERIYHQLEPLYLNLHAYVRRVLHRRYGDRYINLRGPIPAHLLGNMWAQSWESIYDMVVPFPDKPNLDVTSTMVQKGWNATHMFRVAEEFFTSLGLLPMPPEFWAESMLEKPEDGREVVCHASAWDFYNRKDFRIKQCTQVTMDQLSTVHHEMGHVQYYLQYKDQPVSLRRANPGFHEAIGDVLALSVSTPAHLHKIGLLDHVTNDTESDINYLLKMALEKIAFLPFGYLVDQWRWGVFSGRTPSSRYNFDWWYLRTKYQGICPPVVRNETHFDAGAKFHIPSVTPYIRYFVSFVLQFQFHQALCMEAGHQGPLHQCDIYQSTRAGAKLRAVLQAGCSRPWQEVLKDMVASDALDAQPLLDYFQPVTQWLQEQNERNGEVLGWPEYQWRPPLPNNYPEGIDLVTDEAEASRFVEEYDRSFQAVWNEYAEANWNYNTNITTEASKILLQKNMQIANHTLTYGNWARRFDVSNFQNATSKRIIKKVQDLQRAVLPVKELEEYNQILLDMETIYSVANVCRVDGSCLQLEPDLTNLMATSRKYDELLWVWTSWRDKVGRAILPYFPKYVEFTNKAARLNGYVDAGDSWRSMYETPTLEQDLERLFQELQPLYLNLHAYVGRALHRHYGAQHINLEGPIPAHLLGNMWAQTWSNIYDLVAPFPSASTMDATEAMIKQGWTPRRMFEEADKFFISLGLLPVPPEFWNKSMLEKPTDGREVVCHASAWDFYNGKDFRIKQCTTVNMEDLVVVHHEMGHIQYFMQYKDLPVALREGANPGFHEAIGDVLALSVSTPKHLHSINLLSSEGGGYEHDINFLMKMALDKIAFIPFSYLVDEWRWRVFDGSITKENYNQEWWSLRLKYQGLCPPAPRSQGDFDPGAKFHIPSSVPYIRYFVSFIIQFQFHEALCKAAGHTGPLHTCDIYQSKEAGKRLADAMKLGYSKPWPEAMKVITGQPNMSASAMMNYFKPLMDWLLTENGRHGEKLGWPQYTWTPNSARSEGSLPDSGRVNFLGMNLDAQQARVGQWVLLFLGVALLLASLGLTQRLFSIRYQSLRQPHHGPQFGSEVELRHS
Method: The peptide libraries (200 μg) dissolved in borate buffer were equally divided into two parts, one was without any treatment (control group); the other part (experimental group) was incubated with 0.05 mU/μL ACE at 37℃ for 1.5 h statically, followed by gentle shaking at 200 rpm for another 1.5 h, and then the ACE reaction was quenched using 60 μL of 1N HCl. After lyophilization, both samples were redissolved in 100 μL of 0.1M sodium acetate and modified using stable-isotope dimethyl labeling according to the previous study with slight modifications. Briefly, the control group (without ACE incubation) had 4 μL of formaldehyde (37% solution in H2O) and 1 M NaBH3CN (10 μL) added to it; the experimental group had 20% formaldehyde-d2 (8 μL) and 1M NaBH3CN (10 μL) added to it. After 1h, 5 μL of ammonia (28% solution in H2O) were added individually to both groups to stop the reaction. The experimental group and the control group were combined and desalted using the PepClean™C18 spin column. The resulting peptide mixture was lyophilized and kept at −20 °C prior to LC-MS/MS analysis. Formaldehyde is known to the state of California to cause cancer; special caution was taken including the use of surgical gloves and a fume hood when formaldehyde was handled.
The combined mixture re-dissolved in 5% ACN containing 0.1% formic acid was separated using an Ultimate 3000 RSLC system (Dionex, Sunnyvale, CA, USA) coupled with a C18 column (Acclaim PepMap RSLC, 75 μm × 150 mm, Thermo Scientific, Waltham, Middlesex, MA, USA) and analyzed with a Thermo Q-ExactiveTM mass spectrometer (Thermo Scientific Inc., Waltham, Middlesex, MA, USA). The elution solution was composed of mobile phase A (0.1% formic acid in water) and B (0.1% formic acid in 95% acetonitrile). The elution gradient was arranged as follows: (i) isocratic elution using 1% B in the first 5.5 min for sample loading, (ii) linear gradient from 1% to 60% B in the next 39.5 min, (iii) linear gradient from 60% to 80% B in the following 10 min, and finally (iv) isocratic elution using 1% solution B for 10 min. The flow rate applied in the LC separation was maintained at 250 µL/min. The separated peptides were analyzed and quantified using Q-ExactiveTM mass spectrometry which was operated in the data-dependent mode and switched automatically between MS and HCD-MS2. A full MS scan was carried out in a 100 and 1500 m/z range, and the 14 ions of the highest intensities were selected for MS/MS scans. The RAW data were converted to the MGF file format followed by database-assisted sequencing with PEAKS DB using PEAKS Studio X (Bioinformatics Solutions Inc., Waterloo, ON, Canada). The parameters used for peptide identification were listed as follows: (1) Database: UniProt_SwissProt (Bos taurus); (2) Enzyme: pepsin, trypsin, α-chymotrypsin, or GI (the combination of these three proteases); (3) Type of enzyme: Unspecific; (4) Instrument: Orbitrap; (5) Parent mass error tolerance: 20 ppm; (6) Fragment mass error tolerance: 0.6 Da; (7) Variable modifications: Dimethyl (K), Dimethyl (N-term), Dimethyl:2H(4) (K), and Dimethyl:2H(4) (N-term) were used for identification and quantitative analysis. The sequence identified through the database was validated by manually matching with the MS/MS spectrum in the raw data. In addition to MS/MS analysis coupled with PEAKS studio, the ACE’s substrate candidates were further confirmed using the synthetic peptides with corresponding sequences by comparison with their LC retention times, m/z values, and MS/MS spectra. The relative abundances of hydrogen (H) and deuterium (D) labeled peptides were quantified based on the peak areas in their corresponding selective ion chromatograms (SIC). The D/H ratio of identified peptide with the same sequence was further examined by their relative signal intensities in MS spectrum. Theoretically, the D/H ratio of the isobaric pair should stay at 1 if the peptide will not react with ACE. […]

Going from LHLPLPLL [LL-8] to AYFYPELFR [AR-9], the “D/H Ratio” value falls from 0.74 to 0.19.

First: LVYPFPGPIHNSL [LL-13]
Second: HLPLPLLQSW [HW-10]
The “D/H Ratio” value of the first is higher: 0.26 for the first, 0.12 for the second.

First: FFVAPFPEVF [FF-10]
Second: YVPLGTQ [YQ-7]
The “D/H Ratio” value of the first is higher: 0.87 for the first, 0.33 for the second.
